Like-named read-outs stand apart in the source and are kept apart here.
What was measured:
Salmonella tolC mutant = assay: Growth assay, Salmonella tolC mutant in wild‐type or fra island mutant background; type: cell-based; conditions: early finding; could not be replicated after multiple attempts with stocks from different suppliers (data not shown)
Description: We sought to examine the possibility that some of the hits in the biochemical HTS were not picked up in the cell‐based assays due to efficient efflux mechanisms in Salmonella. Because TolC is an outer membrane protein channel that is essential for the ability of seven of the 10 inner membrane drug‐efflux transporters to expel structurally diverse molecules, we generated a Salmonella tolC mutant and tested the 121 compounds that we purchased (Sabag‐Daigle, A. & Ahmer, B. M. M., unpublished results). The tests were conducted in parallel using the tolC mutant in a wild‐type or fra island mutant background; the latter lacks the entire fra locus and is incapable of catabolizing F‐Asn and forming 6‐P‐F‐Asp. Thus, any inhibitor specific for FraB (and which was being effluxed in the wild‐type) will inhibit the tolC mutant in a wild‐type but not the fra island mutant background. A caveat is that efflux of compounds may also be achieved via TolC‐independent drug‐efflux pumps.

[1] = biological target: His6‐FraB (Salmonella FraB deglycase) (Salmonella enterica subsp. enterica serovar Typhimurium, UniProt Q8ZLD0); assay: FraB-G6PD coupled assay, Michaelis–Menten analysis for K I and mode of inhibition; type: biochemical
Procedure: To determine the K I of each inhibitor, 29 μL of master mix was added to two rows of a 384‐well Greiner plate, using a single‐channel pipette, and incubated at 20 °C for 20 min. A 12‐channel pipette was then used to transfer and mix 1 μL of varying [6‐P‐F‐Asp] to all 48 wells. The final reaction (30 μL) consisted of 25 mM HEPES pH 8.0 at 20 °C, 5 mM MgCl2, 0.1 mM EGTA, 0.5 mM NAD^+, 1 mU G6PD, 100 nM His6‐FraB, varying (6‐P‐F‐Asp) (between 8 and 12 concentrations), and varying [inhibitor] (between three and five concentrations) in 10% (v/v) DMSO. NADH fluorescence was monitored every 10 s for 10 min total on a SPARK® multi‐mode multiplate reader (Tecan), as described above, and plotted against time. Slopes of the linear range of each curve were converted to initial velocities, as described above, that were then plotted against [6‐P‐F‐Asp]. A hyperbolic curve was then fitted to the data to obtain the k cat and K m values according to the formula: v o = (V max × [S])/(K m + [S]).
To determine the correlation between the observed and expected initial velocities (Fig. S5A), these values were exported from Kaleidagraph, plotted against one another, and a curve was fit using the formula: y = mx + b. The differences between observed and expected initial velocities (residuals) were then depicted as box‐and‐whisker plots (Fig. S5B). Lineweaver‐Burk plots were generated by graphing 1/v o versus 1/[S] and curves were fit to the data with Kaleidagraph using the formula: 1/v o = (Km/V max).(1/[S]) + (1/V max). The k cat and K m parameters were then converted into α′ values by dividing the k cat of the control (no inhibitor) by either itself (α′= 1) or the k cat of test samples with variable [inhibitor]. Those α′ values were plotted against [inhibitor] and K I values were determined from the equation α = 1 + [I]/K I.
The initial velocities used to generate the Michaelis–Menten plots were also employed to obtain the IC50 vs [S]/K m plots. For a given [S], initial velocities were converted into relative activities and plotted versus [inhibitor]. […] The IC50 values determined from the IC50 vs [S]/K m plots were then used to plot 1/IC50 versus v o/V max. A curve was fit to the data using the formula: y = mx + b. The Y‐intercept of the 1/IC50 versus v o/V max plot is equal to 1/K IC, and the slope, for mixed inhibitors, is equal to 1/K IU – 1/K IC. […] Data analyses were performed as described above (see Tables S1–S7 for curve‐fit errors and goodness‐of‐fit values).

Chain of His6‐FraB (Salmonella FraB deglycase) (Q8ZLD0 entry or part of it): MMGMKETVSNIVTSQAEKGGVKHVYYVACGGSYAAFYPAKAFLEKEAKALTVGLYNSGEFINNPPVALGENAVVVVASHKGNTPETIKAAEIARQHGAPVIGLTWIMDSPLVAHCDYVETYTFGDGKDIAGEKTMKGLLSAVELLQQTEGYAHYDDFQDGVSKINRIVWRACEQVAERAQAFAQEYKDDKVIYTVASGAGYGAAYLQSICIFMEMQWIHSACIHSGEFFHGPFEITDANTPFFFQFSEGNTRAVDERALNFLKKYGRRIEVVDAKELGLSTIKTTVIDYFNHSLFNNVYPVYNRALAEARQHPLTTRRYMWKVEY

## c1ccc(-c2nnc3sc(C4COc5ccccc5O4)nn23)nc1 (stereo not shown) [3469:F02, 6‐(2,3‐dihydro‐1,4‐benzodioxin‐3‐yl)‐3‐pyridin‐2‐yl‐[1,2,4]triazolo[3,4‐b][1,3,4]thiadiazole]
Salmonella tolC mutant
  inhibition of growth of Salmonella tolC, fra‐dependent: initially shown to inhibit the growth of Salmonella tolC in a fra‐dependent manner
[1]; 'this trend' = IC50 does not vary with [S]/K m, change evident only from 0.2 to 1.6× [S]/K m
  change of IC50 values with increasing [S]/K m: slight increase
[1]; Fig. S12
  slope in plots of 1/IC50 vs. v o/V max: weakly negative
[1]; Trial 1, 6-P-F-Asp 7.38 µM, S/Km 0.175714, unit from Fig. S11 axis, read-out: IC50 (IC50 versus [S]/Km plots)
  IC50: 18.9 µM
[1]; Trial 1, 6-P-F-Asp 15.7 µM, S/Km 0.37381, unit from Fig. S11 axis, read-out: IC50 (IC50 versus [S]/Km plots)
  IC50: 27.6 µM
[1]; Trial 1, 6-P-F-Asp 31.3 µM, S/Km 0.745238, unit from Fig. S11 axis, read-out: IC50 (IC50 versus [S]/Km plots)
  IC50: 33.5 µM
[1]; Trial 1, 6-P-F-Asp 62.5 µM, S/Km 1.488095, unit from Fig. S11 axis, read-out: IC50 (IC50 versus [S]/Km plots)
  IC50: 27.9 µM
[1]; Trial 1, 6-P-F-Asp 125 µM, S/Km 2.97619, unit from Fig. S11 axis, read-out: IC50 (IC50 versus [S]/Km plots)
  IC50: 34 µM
[1]; Trial 1, 6-P-F-Asp 250 µM, S/Km 5.952381, unit from Fig. S11 axis, read-out: IC50 (IC50 versus [S]/Km plots)
  IC50: 31.8 µM
[1]; Trial 1, 6-P-F-Asp 500 µM, S/Km 11.90476, unit from Fig. S11 axis, read-out: IC50 (IC50 versus [S]/Km plots)
  IC50: 32.7 µM
[1]; Trial 1, 6-P-F-Asp 750 µM, S/Km 17.85714, unit from Fig. S11 axis, read-out: IC50 (IC50 versus [S]/Km plots)
  IC50: 33.7 µM
[1]; Trial 1, 6-P-F-Asp 1000 µM, S/Km 23.80952, unit from Fig. S11 axis, read-out: IC50 (IC50 versus [S]/Km plots)
  IC50: 33.9 µM
[1]; Trial 1, 6-P-F-Asp 2000 µM, S/Km 47.61905, unit from Fig. S11 axis, read-out: IC50 (IC50 versus [S]/Km plots)
  IC50: 36.1 µM
[1]; Trial 1, 6-P-F-Asp 3000 µM, S/Km 71.42857, unit from Fig. S11 axis, read-out: IC50 (IC50 versus [S]/Km plots)
  IC50: 52.6 µM
[1]; Trial 2, 6-P-F-Asp 7.38 µM, S/Km 0.175714, unit from Fig. S11 axis, read-out: IC50 (IC50 versus [S]/Km plots)
  IC50: 41.2 µM
[1]; Trial 2, 6-P-F-Asp 15.7 µM, S/Km 0.37381, unit from Fig. S11 axis, read-out: IC50 (IC50 versus [S]/Km plots)
  IC50: 41.3 µM
[1]; Trial 2, 6-P-F-Asp 31.3 µM, S/Km 0.745238, unit from Fig. S11 axis, read-out: IC50 (IC50 versus [S]/Km plots)
  IC50: 51.7 µM
[1]; Trial 2, 6-P-F-Asp 62.5 µM, S/Km 1.488095, unit from Fig. S11 axis, read-out: IC50 (IC50 versus [S]/Km plots)
  IC50: 51.3 µM
[1]; Trial 2, 6-P-F-Asp 125 µM, S/Km 2.97619, unit from Fig. S11 axis, read-out: IC50 (IC50 versus [S]/Km plots)
  IC50: 49.2 µM
[1]; Trial 2, 6-P-F-Asp 250 µM, S/Km 5.952381, unit from Fig. S11 axis, read-out: IC50 (IC50 versus [S]/Km plots)
  IC50: 47.8 µM
[1]; Trial 2, 6-P-F-Asp 500 µM, S/Km 11.90476, unit from Fig. S11 axis, read-out: IC50 (IC50 versus [S]/Km plots)
  IC50: 46.1 µM
[1]; Trial 2, 6-P-F-Asp 750 µM, S/Km 17.85714, unit from Fig. S11 axis, read-out: IC50 (IC50 versus [S]/Km plots)
  IC50: 45.4 µM
[1]; Trial 2, 6-P-F-Asp 1000 µM, S/Km 23.80952, unit from Fig. S11 axis, read-out: IC50 (IC50 versus [S]/Km plots)
  IC50: 48.9 µM
[1]; Trial 2, 6-P-F-Asp 2000 µM, S/Km 47.61905, unit from Fig. S11 axis, read-out: IC50 (IC50 versus [S]/Km plots)
  IC50: 59.2 µM
[1]; Trial 2, 6-P-F-Asp 3000 µM, S/Km 71.42857, unit from Fig. S11 axis, read-out: IC50 (IC50 versus [S]/Km plots)
  IC50: 67.2 µM
[1]; average (±SE), from 1/IC50 versus v o/V max plots
  K IU/K IC ratio: 1.35 ± 0.25
[1]; from Michaelis–Menten analysis of FraB at different inhibitor concentrations, average and standard error from two measurements, read-out: K I
  Ki: 28.5 ± 3.5 µM
[1]; kinetic analyses (Lineweaver‐Burk, α′ vs [I], IC50 vs [S]/K m, 1/IC50 vs v o/V max)
  mode of inhibition: mixed‐type competitive
[1]; trial shown in Fig. S11 panels M-X, read-out: IC50, mean and standard deviation of all IC50 values in IC50 vs [S]/Km plot
  IC50: 50 ± 8 µM
[1]; trial shown in Fig. S11 panels M-X, read-out: KI from α′ vs [I] plot
  Ki: 25 µM
[1]; trial shown in Fig. S11 panels Y-AJ, read-out: KI from α′ vs [I] plot
  Ki: 32 µM

From publication PMC12051030, “Identification of inhibitors of the Salmonella FraB deglycase, a drug target” (FEBS Open Bio, 2025)
